Assay results reported in US10525026B2, “Intravenous administration of citrulline during surgery” (Vanderbilt University, priority 2015, dated 2020).

Columns and labels:
[1] = Randomized, placebo controlled, double blind intravenous citrulline study (77 patients); assay type: in vivo, children; conditions: bolus plus infusion protocol, hemofiltration during CPB
Excerpt: An intravenous citrulline study conducted was a randomized, placebo controlled, double blind study with the primary clinical outcome being length of mechanical ventilation postoperatively and secondarily the incidence of postoperative pulmonary hypertension between the 2 treatment groups (citrulline vs placebo).
A total of 77 patients were enrolled at Vanderbilt Children's Hospital. Patients were screened based on the surgical schedule. Based on this schedule, patients undergoing one of the 5 planned cardiac surgeries included in this study were screened (patients undergoing the Norwood procedure are now excluded at the recommendation of the DSMB).
The study was stopped in preparation for a larger multicenter randomized placebo controlled trial. […] These hemofiltration techniques had changed during the study, and the investigators were not aware of these changes.

[2] = Perioperative oral citrulline supplementation in children undergoing congenital cardiac surgery; assay type: in vivo
Protocol: 40 patients with one of the 5 surgical diagnoses identified above were randomized to receive 5 doses of oral citrulline (1.9 grams/kg) vs. placebo. The first dose was administered immediately prior to surgery and the second dose immediately on arrival in the Pediatric ICU after surgery followed every 12 hours×3 doses.

[3] = Intravenous citrulline in piglets: safety and effect on serum arginine levels; assay type: in vivo, Duroc swine; conditions: 600 mg/kg IV
Protocol: The objective was to assess the safety of intravenous citrulline and its effect on serum arginine levels in piglets. A total of 9 Duroc swine, aged 5-21 days, with a target minimum weight of 4 kg were utilized. All piglets underwent anesthetic induction and tracheostomy. Central lines were placed in the femoral artery and femoral vein and hemodynamics monitored continuously. Citrulline (600 mg/kg IV) was administered to 5 piglets. Saline was given to control animals. Serum amino acids were drawn before and each hour after citrulline administration.

[4] = Phase IB single-blind, randomized, placebo controlled PK and safety study of IV L-citrulline in children and infants undergoing CPB; assay type: in vivo
Protocol: A multicenter, Phase IB single-blind, randomized, placebo controlled study was conducted to determine the pharmacokinetics (PK) and safety of IV L-citrulline administration to children and infants undergoing cardiopulmonary bypass (CPB) for surgical repair of congenital heart defects.
The primary objective of the study was to determine if a revised protocol of intravenous (IV) L-citrulline delivery given peri-operatively achieved a plasma citrulline level of >100 μmol/L in the group given citrulline and to compare that to citrulline levels in the placebo group, during follow-up in children undergoing surgical repair of an atrial septal defect (ASD) and/or a ventricular septal defect (VSD) or a partial or complete atrioventricular septal defect (AVSD).
Twenty two (22) patients were enrolled and treated. The patients received study drug or placebo infusion according to a fixed dosing protocol starting at the initiation of CPB until 48 hours postoperatively or until removal of the arterial line. Study participation ended at discharge or at Day 28 whichever came first. The dosing regimen was designed to maintain plasma citrulline levels in the face of extended hemofiltration.
Plasma citrulline concentration levels were the primary PK variable; these were assessed in blood samples collected at 7 perioperative time points. Secondary PK variables were concentrations of arginine and nitric oxide (NO) metabolites in the same sample set. PK values were compared between groups.
Subjects received an IV citrulline bolus of 150 mg/kg or placebo at the initiation of CPB, followed by the addition of L-citrulline at a concentration of 200 μmol/L or placebo to the filtration or hemoconcentration replacement fluid used during CPB. A citrulline bolus of 20 mg/kg was administered 30 minutes after decannulation from CPB, immediately followed by a 9-mg/kg/hr continuous infusion of citrulline or placebo for 48 hours.
Primary safety assessments included hemodynamic monitoring to identify clinically significant hypotension using age-specific limits. Adverse event information was collected, and postoperative bleeding was recorded.
Further safety, laboratory, and clinical assessments were performed from baseline to discharge, secondary clinical variables included: postoperative mechanical ventilation, duration of total respiratory support, hemodynamic improvement, postoperative PVT by echocardiogram, serum creatinine and liver enzymes, inotrope score, duration of chest tube usage, length of intensive care unit stay, length of hospitalization and survival.
The duration of postoperative invasive mechanical ventilation was derived as the time in hours from separation from cardiopulmonary bypass until endotracheal extubation. If a patient required reintubation within 24 hours after extubation, the reintubation time was added in the main analysis. In a second analysis, the reintubation time was not included.

[5] = Perioperative intravenous L-citrulline pharmacokinetics, single bolus dose escalation in children undergoing congenital cardiac surgery; assay type: in vivo
Protocol: To determine clearance of a single bolus dose of IV citrulline and optimal dose frequency, a dose escalation design using three concentrations of IV citrulline: 50, 100, & 150 mg/kg was utilized. The dose of citrulline was given in the operating room immediately after cannulation and initiation of cardiopulmonary bypass. The overall goal was to achieve a sustained citrulline level of 100 μmol/L or more up to four hours after the initial dose. The four hour time point was selected to allow for the surgical procedure to be completed and the patient to return to the ICU postoperatively before further dosing.
Patients were then enrolled using this revised protocol of a combination of a bolus dose of 150 mg/kg in the OR on CPB and a continuous infusion of 9 mg/kg/hr started postop in the PICU at 4 hours after the initial bolus dose.

[6] = Revised dosing protocol for cardiac surgery, 22 patients randomized to placebo and citrulline; assay type: in vivo, children
Excerpt: The study in this example was undertaken to test a revised dosing protocol designed to achieve and maintain therapeutic citrulline levels in the face of ultrafiltration and crystalloid replacement. […] The study recruited 22 patients randomized in equal numbers of 11 patients each to placebo and citrulline arms. Early in the course of the study, it was recognized that one of the two participating centers routinely extubated all patients in the operating room immediately following cessation of cardiopulmonary bypass. This precluded use of the duration of mechanical ventilation as an endpoint. Instead, a post-hoc analysis was applied using the duration of all forms of ventilatory support as a possible endpoint. […] In contrast, contingency table analysis, shown in Table 5, did achieve borderline significance. Overall, the results are considered to represent a strong trend.

[7] = Safety and pharmacokinetics of intravenous citrulline, open label dose escalation in children undergoing repair of congenital heart defects; assay type: in vivo; conditions: for concentration at 4 h: read-out: 4 hour trough citrulline level
Protocol: The initial goal was to test the safety and pharmacokinetics of three doses of intravenous citrulline in children undergoing surgical repair of specific congenital heart defects. […] An adverse drop in mean arterial pressure was defined as a greater than a twenty percent decrease from baseline. The baseline postoperative mean arterial blood pressure was calculated as the average of mean arterial blood pressure measurements collected every 5 minutes for the 30 minutes immediately preceding the administration of the postoperative dose or infusion.
The original doses selected were 200, 400, and 600 mg/kg based on data from previous animal studies. The original study design was a 4 arm study using the 3 doses and a placebo control.
After pharmacokinetic modeling, the study design was changed to a bolus dose of 150 mg/kg given in the OR on cardiopulmonary bypass followed 4 hours later by a continuous infusion of 9 mg/kg/hour for 48 hours. Another 9 patients were enrolled. The mean plasma levels of both citrulline and arginine in study patients (+IV citrulline) compared to patients in the observational cohort (−IV citrulline) are depicted in FIGS. 11A-B.

[8] = revised dosing protocol, contingency table, 11 patients per arm
[9] = bolus 150 mg/kg at beginning of surgery, 4 hours later continuous infusion 9 mg/kg/hr
[10] = original doses 200, 400, and 600 mg/kg intravenous, five patients

Structure (SMILES): NC(=O)NCCCC(N)C(=O)O (stereo not drawn) [citrulline, 2-amino-5-(carbamoylamino)pentanoic acid]
- Reaching the sustained target plasma citrulline level of 100 μmol/L [1]: a majority who received citrulline did not reach the therapeutic sustained target plasma citrulline level
- Tolerability / adverse events of oral citrulline ([2]; 1.9 g/kg before CPB, postoperatively and every 12 hours for 48 hours): well tolerated with no evidence of significant adverse events
- Plasma citrulline levels ([2]; 5 doses of 1.9 grams/kg, vs. placebo 26, p=0.013): 36 µmol/L
- Hemodynamic instability [3]: No hemodynamic instability was observed
- Time of peak serum arginine levels following intravenous citrulline administration [3]: 1 to 2 h
- Arginine Levels Following intravenous citrulline ([3]; 1 hour post): 535.0 µmol/L
- Mean Arterial Blood Pressures Following intravenous Citrulline ([3]; 1 hour post): 67.4 mmHg
- Arginine Levels Following intravenous citrulline ([3]; 2 hours post): 559.8 µmol/L
- Mean Arterial Blood Pressures Following intravenous Citrulline ([3]; 2 hours post): 64.8 mmHg
- Arginine Levels Following intravenous citrulline ([3]; 3 hours post): 498.4 µmol/L
- Mean Arterial Blood Pressures Following intravenous Citrulline ([3]; 3 hours post): 62.2 mmHg
- Arginine Levels Following intravenous citrulline ([3]; Baseline): 131.5 µmol/L
- Mean Arterial Blood Pressures Following intravenous Citrulline ([3]; Pre-dose): 67.0 mmHg
- Plasma citrulline levels ([4]; bolus 150 mg/kg, 200 μmol/L in filtration fluid, bolus 20 mg/kg, infusion 9 mg/kg/hr for 48 hours): > 100 µmol/L
- Sustained plasma citrulline levels ([4]; bolus 150 mg/kg, 200 μmol/L in priming and hemofiltration fluid, bolus 20 mg/kg, infusion 9 mg/kg/hr for 48 hours): around 100 μmol/L
- Duration of invasive mechanical ventilation, Kaplan-Meier analysis versus placebo ([4]; excluding re-intubation, Wilcoxon p=0.0222, ANOVA t-test p=0.0317): reduced duration of mechanical ventilation
- Mean duration of invasive mechanical ventilation ([4]; including the reintubation time, placebo 37 hours): 5 h
- Composite durations of mechanical ventilation and inotrope therapy versus placebo ([4]; longer of the two durations, surrogate for ICU stay): shorter composite durations of mechanical ventilation and inotrope therapy
- Patients extubated in the operating room ([4]; one site, 6 patients per group, placebo 33%): 100%
- Adverse effects including hypotension ([5]; IV bolus 50, 100, 150 mg/kg): no adverse effects including hypotension
- ½ life of the bolus doses ([5]; IV bolus 50, 100, 150 mg/kg): 60 to 90 min
- concentration at 4 h ([5]; human, plasma, 150 mg/kg IV bolus after initiation of CPB, read-out: Four hour citrulline levels): ~100 µM
- Systolic and diastolic blood pressure versus placebo ([6]; FIG. 18A): No significant change in systolic and diastolic blood pressure
- Mean arterial pressure versus placebo ([6]; FIG. 18B): No significant change in the mean arterial pressure
- Inotrope scores versus placebo ([6]; particularly from 15 to 18 hours onward following ICU admission): markedly better inotrope scores
- Adverse effects upon hemodynamic parameters ([6]; revised dosing protocol): No adverse effects upon hemodynamic parameters were observed
- Number of patients with Duration of Respiratory Support >50 hours [6, 8]: 2
- Number of patients with Duration of Respiratory Support ≤50 hours [6, 8]: 7
- Adverse side effects ([7]; 50 mg/kg intravenous): No adverse side effects were noted
- Peak citrulline level ([7]; 50 mg/kg intravenous, patients 6 and 8): approximately 220 μmol/L
- Adverse side effects ([7]; 100 mg/kg intravenous): no adverse side effects were noted
- Peak citrulline level ([7]; 100 mg/kg intravenous, patients 9 & 10): 375 µmol/L
- Peak citrulline level ([7]; 150 mg/kg intravenous, patients 13-16): 660 µmol/L
- Adverse side effects [7, 9]: No adverse side effects were noted
- Sustained plasma citrulline levels [7, 9]: around 100 μmol/L
- Significant adverse events ([7]; bolus 150 mg/kg on CPB, 4 hours later infusion 9 mg/kg/hour for 48 hours): one significant adverse event but it was not related to the use of IV citrulline
- concentration at 4 h ([7]; human, plasma, 50 mg/kg intravenous, patients 6 and 8): 40 µM
- concentration at 4 h ([7]; human, plasma, 100 mg/kg intravenous, patients 9 & 10): 50 µM
- concentration at 4 h ([7]; human, plasma, 150 mg/kg intravenous, patients 13-16): 80 µM
- half-life ([7]; human, plasma, intravenous bolus 50, 100, 150 mg/kg): ~1.42 h
- Adverse effects [7, 10]: no adverse effects were noted
- Plasma levels achieved [7, 10]: very high
